What was measured:
NE [1] = target: T1, NE (Mus musculus, UniProt Q3UP87); type: binding
T1 sequence (Q3UP87 29-247 limits assumed): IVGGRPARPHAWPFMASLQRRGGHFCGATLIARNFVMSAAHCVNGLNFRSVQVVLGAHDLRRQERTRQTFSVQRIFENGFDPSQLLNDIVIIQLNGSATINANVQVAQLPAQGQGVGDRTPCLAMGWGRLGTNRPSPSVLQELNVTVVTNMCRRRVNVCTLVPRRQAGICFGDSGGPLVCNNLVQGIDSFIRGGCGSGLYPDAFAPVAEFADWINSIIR

neutrophil elastase (NE) = target: T2, neutrophil elastase (NE) (Homo sapiens, UniProt P08246); test: Recombinant protease labeling / fluorescent SDS-PAGE, neutrophil elastase; type: binding; conditions: 0.1-1 μM probe
T2 construct: purchased Elastin Products Company
T2 sequence (P08246 30-267): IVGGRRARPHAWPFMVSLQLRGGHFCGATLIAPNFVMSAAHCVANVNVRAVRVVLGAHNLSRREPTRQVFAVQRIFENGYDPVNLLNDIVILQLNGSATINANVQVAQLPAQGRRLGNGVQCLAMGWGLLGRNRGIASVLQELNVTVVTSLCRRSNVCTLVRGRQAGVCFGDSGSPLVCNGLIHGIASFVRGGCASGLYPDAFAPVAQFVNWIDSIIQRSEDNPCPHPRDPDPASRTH

NE [2] = test: Ex vivo labeling of human colon mucosal biopsy lysates (ulcerative colitis vs healthy); type: binding
Experimental: (§1) Tubes were rocked overnight at 4° C.
Human mucosal biopsies were obtained from individuals during colonoscopy procedures at Hotel Dieu Hospital in Kingston, Ontario, Canada (Table 1). Patients were well-characterized individuals with active ulcerative colitis (UC) or healthy individuals undergoing routine colonoscopy for cancer screening. For UC patients, biopsies were obtained from sites of active inflammation. Written and verbal consent was obtained prior to enrolment and all protocols were approved by the Queen's University Human Ethics Committee. Fresh biopsies were washed in PBS and then snap frozen for protease analysis as above.

NE [3] = system: NE
Experimental: PK105b or Cy5-V-DPP (0, 0.1, 0.5 or 1 μM) was added from a 100×DMSO stock, and reaction was left to occur at 37° C. for 30 minutes. Proteins were solubilized in 4× sample buffer (40% glycerol, 200 mM Tris-Cl [pH 6.8], 8% SDS, 0.04% bromophenol blue, 5% beta-mercaptoethanol), boiled for five minutes and resolved on a 15% SDS-PAGE gel. Probe labeling was detected by scanning the gel for Cy5 fluorescence on a Typhoon 5 flatbed laser scanner (GE Healthcare).
Bone marrow was obtained by flushing tibias and femurs from healthy C57BL/6J mice with PBS. Cells were washed and resuspended in PBS prior to sonication on ice. […] Total protein (60 μg, as measured by BCA assay, Pierce) was aliquoted in a total volume of 20 μl PBS, and probe labeling and SDS-PAGE was carried out as above.
Fluorescent Gels were Transferred to Nitrocellulose Membranes and Blotted Using the Turbo Blot system (BioRad). […] Binding was detected by scanning with the IRLong filter on a Typhoon 5 flatbed laser scanner (GE Healthcare).
PK105b-labeled lysates (boiled in sample buffer for five minutes) were divided into input and immunoprecipitation (IP) samples (100 μg each). […] Supernatants were then analyzed, alongside the input sample, by fluorescent SDS-PAGE as above. […]

NE [4] = target: T1, NE; type: binding; remark: listed apart in the source
[5] = system: serine proteases in lysates prepared from mouse pancreas; test: Ex vivo labeling of mouse pancreas lysates, in-gel fluorescence and immunoprecipitation; type: binding
Experimental: as §1

CCC(NC(=O)[C@@H]1CC2CCCCC2N1C(=O)[C@H](CCS(C)(=O)=O)NC(=O)[C@H](CCCCOCc1ccccc1)NC(=O)CCCCCN1/C(=C/C=C/C=C/C2=[N+](CC)c3ccc(S(=O)(=O)[O-])cc3C2(C)C)C(C)(C)c2cc(S(=O)(=O)O)ccc21)P(=O)(Oc1ccccc1)Oc1ccccc1 (stereo partly shown) [PK105b]
ability to detect NE activity in tissue lysates compared between probes (NE [1]): clearly superior to Cy5-V-DPP
binding to other species (off-target bands) (NE [1]): binding to several species in the 50-75-KDa range
identity of the labeled band by immunoprecipitation with NE-specific antibody (NE [1]): confirmed to be NE
labeling of the 25-KDa band in healthy distal colons and proximal regions of healthy and inflamed colons (NE [1]): virtually absent
labeling of the 25-KDa species in distal colon lysates of TNBS-treated mice (NE [1]): clear labeling of a single protein at 25-KDa
species of the 25-KDa NE doublet labeled by the probe (NE [1]): Only the lower species
potency of NE labeling compared between probes (neutrophil elastase (NE)): more potent than Cy5-V-DPP
identity of labeled bands by immunoprecipitation with NE-specific antibody (NE [2]; UC biopsy lysates): confirmed to be NE
labeling in active ulcerative colitis biopsies compared with healthy individuals (NE [2]; human colon mucosal biopsies, UC n=9, normal n=5): significant increase in labeling
number of species labeled in human mucosal lysates (NE [2]; in-gel fluorescence): three species were labeled
labeling in tumor tissues versus normal tongue tissues (NE [3]; HSC-3 xenograft, two weeks): clear labeling of a 25-KDa species in tumor tissues, but not normal tongue tissues
labeling of other high-molecular weight species in tumor/tongue lysates (NE [3]; unidentified species): abundantly labeled
identity of the major 25-KDa species by immunoblotting and immunoprecipitation (NE [4]): confirmed to be NE
labeling in infected lung tissue lysates compared with control lungs (NE [4]): significantly increased
labeling of 25-KDa proteins in mouse pancreas lysates (in-gel fluorescence) ([5]; 0.1, 0.5 and 1 µM): strongly labeled
targets of the probe identified by immunoprecipitation ([5]; labeled mouse pancreas lysates, antibodies to NE, PE, Try3): combination of NE, pancreatic elastase (PE), and trypsin 3
